# Experimental data published in patent US10975043B2, “Heterocyclic compound” (TAKEDA PHARMACEUTICAL COMPANY LIMITED, priority 2014, dated 2021).
# Assays:
# RBP4 [1] = biological target: T1, RBP4 (Mus musculus, UniProt Q00724); test: Blood RBP4-lowering action in C57BL/6J mouse, plasma RBP4 by ELISA; format: in vivo; settings: mean±SD, n=4 or 5
# T1 construct: from tissue; host or cells: plasma of male C57BL/6J mice (Japan Charles River)
# Protocol: The blood RBP4-lowering action of the compound of the present invention was evaluated using C57BL/6J mouse.
# Male 7- to 10-week-old C57BL/6J mice (Japan Charles River) were acclimation reared under free food ingestion conditions on CE-2 solid feed (CLEA Japan, Inc.) for 4 to 6 days, and randomly grouped (4 or 5 per group). On the day of the test, blood samples were collected from the tail vein, and plasma was separated (0 hr value). Thereafter, a test compound (Example 1, 2, 3, 4, 5, 6, 7 or 8) was orally administered at a dose of 3 mg/kg or 10 mg/kg (solvent: 0.5% methylcellulose solution (10 mL/kg)). At 8 and 24 hr after the compound was administered, blood samples were collected from the tail vein and plasma was separated. A 0.5% methylcellulose solution (10 mL/kg) was orally administered to the control group.
# The amount of RBP4 in the collected plasma was measured by the ELISA method. Using rabbit anti-mouse RBP4 polyclonal antibody (Hokudo Co., Ltd.), RBP4 was quantified by the following process. A 96 well ELISA plate was coated with 50 μg/mL antibody (100 μL), and stood at 4° C. overnight or at room temperature for 2 hr. After blocking with BlockAce (Dainippon Pharmaceutical Co., Ltd.), 100 μL of mouse RBP4 or sample was added and the plate was stood at room temperature for 2 hr, washed with PBS-0.5% Tween20, added with HRP-labeled anti-RBP4 antibody (prepared by labeling RBP4 polyclonal antibody (Hokudo Co., Ltd.) with HRP (DOJINDO LABORATORIES)) (100 μL), and stood at room temperature for 1 hr. After washing, TMB (Sigma) was added at room temperature for 20 min to allow for color development. The reaction was quenched with 2N sulfuric acid and the absorbance at A450 nm was measured by a platereader. Variation from the initial value of each individual was taken as the relative value to the control group (initial value/control value, %) at each time point. The results are shown below in mean±standard deviation (n=4 or 5).
# RBP4 [2] = biological target: T2, RBP4 (Homo sapiens, UniProt P02753); test: Binding assay by Retinol-RBP4-TTR ELISA; design: the culture supernatant containing secreted hRBP4-His was recovered; made in house; host or cells: FreeStyle 293 expression system (Invitrogen), secreted into the culture supernatant; settings: 10 μM compound; retinol 50 nM; His-tagged human RBP4, biotinylated human TTR; read-out: human RBP4 binding inhibitory activity (% at 10 μM)
# Protocol: Using the Retinol-RBP4-TTR ELISA system shown below, the action of the compound of the present invention to inhibit the binding of RBP4 and retinol and TTR was evaluated.
# 1F: Binding Assay by Retinol-RBP4-TTR ELISA
# This ELISA system detects a complex with RBP4 and TTR based on the retinol dependent binding of RBP4 to TTR.
# The His-tagged human RBP4 used was prepared in the above-mentioned 1C.
# The biotinylated human TTR used was prepared in the above-mentioned 1E.
# Streptavidin (20 μl) (10 μg/ml Streptavidin type II (Wako Pure Chemical Industries, Ltd.), 10 mM Tris-HCl (pH 7.5), 10 mM NaCl) was added to a 384 well blackplate (Nunc MaxiSorp, Thermo Fisher Scientific Inc.), and the plate was centrifuged (1000 rpm, 1 min) and coated at 4° C. overnight. The plate was washed twice with PBST (PBS, 0.05% Tween 20, 100 μl/well), and blocked with 25% Block Ace (Snow Brand Milk Products Co., Ltd., PBS, 100 μl/well). The plate was subjected to centrifugation (1000 rpm, 1 min), and incubated at room temperature for 4 hr or 4° C. overnight. The plate was washed twice with PBST (PBS, 0.05% Tween 20, 100 μl/well), and biotinylated human TTR (stock solution concentration 1.0 mg/ml) diluted 750-fold with PBST was added at […]. The plate was subjected to centrifugation (1000 rpm, 1 min), and further stood at room temperature for 1.5 hr or 4° C. overnight. The plate was washed 3 times with PBST (100 μl/well), and His-tagged human RBP4 (stock solution concentration 1.28 mg/ml) diluted 4000-fold with a reaction buffer (50 mM Tris-HCl, 150 mM NaCl, 0.005% Tween 20, 1 mM DTT, 0.1% BSA) was added at 10 μl/well. The dilution of the compound (200-fold concentration) was prepared with DMSO, and 1.6 μl each was added to a reaction buffer (320 μl) containing retinol (50 nM) (Sigma-Aldrich Co.). A reaction buffer (320 μl) containing retinol and added with DMSO was used as a positive control, and a reaction buffer (320 μl) not containing retinol and added with DMSO was used as a negative control. A mixed solution of retinol and the compound was added to the plate at 15 μl/well. The plate was stirred in a plate mixer, centrifuged (1000 rpm, 1 min), and reacted at room temperature for 2 hr. Anti-His HRP-conjugated antibody (QIAGEN) solution diluted with a reaction buffer was added at 10 μl/well, centrifuged (1000 rpm, 1 min), and reacted at room temperature for 30 min. The plate was washed 3 times with PBST (100 μl/well), SuperSignal ELISA Femto Maximum Sensitivity Substrate reagent (PIERCE, Thermo Fisher Scientific Inc.) was added at 30 μl/well, and the luminescence was measured by a plate reader (Envision).
# The binding inhibitory activity of the compound was determined by 100×(positive control value−test compound value)/(positive control value−negative control value).
# [3] = system: A2E in the eyeball of ABCA4 KO mouse; test: Suppression of A2E accumulation in the eyeball of ABCA4 KO mouse, A2E by HPLC; format: in vivo; settings: 8 or 12 weeks
# Protocol: The suppressive action for accumulation of retinoid metabolite bis-retinoid N-retinylidene-N-retinylethanolamine (A2E) in the eyeball, of the compound of the present invention, was evaluated using ATP-binding cassette A4 knockout (ABCA4 KO) mouse. A2E is the major constituent component of Lipofuscin in the eyeball, and is involved in the onset and pathology progression in atrophic age-related macular degeneration and Stargardt's disease. ABCA4 KO mouse was confirmed to show remarkable accumulation of A2E, Lipofuscin along with aging, and is known as an animal model of atrophic age-related macular degeneration and Stargardt's disease.
# 8-Week-old male ABCA4 KO mice were randomly grouped, and 0.5% methylcellulose solution was orally administered to the control group, and 0.5% methylcellulose suspension of a compound at a dose shown in the following Table was orally administered to the test compound group, each once per day at 10 mL/kg. Each group contained 6 or 7 mice. After repetitive administration for 8 or 12 weeks, eyeball was isolated under anesthesia.
# In the eyeball, A2E was measured by the HPLC method. A2E reference standard was synthesized from all-trans retinal, ethanolamine in acetic acid-added ethanol. First, 0.3 mL of PBS and zirconia beads were added to the eyeball, and homogenate was prepared using Mixer Mill MM 300 (QIAGEN). A chloroform:methanol (2:1) solution (0.8 mL) was added and the mixture was stirred for […]. The lower layer was separately taken in a different tube, the chloroform:methanol (2:1) solution (0.6 mL) was further added and the mixture was stirred for 5 min. The lower layer was combined with one separated earlier, and dried to solidness by blowing nitrogen gas. 0.05 mL of 85% acetonitrile solution was added and the mixture was stirred to give a measurement sample. For HPLC, Alliance e2695 and Photo diode array 2998 (PDA) (Waters) were used, and Empower 2 was used as an analysis software. The column used was Atlantis dC18 (3 μm, 3.9×150 mm) (Waters), and the column temperature was set to 40° C. […] Quantification was performed at ultraviolet absorbance at 440 nm by PDA.
# RBP4 [4] = settings: administration to an animal; cited from earlier work
# RBP4 [5] = biological target: T2, RBP4; settings: consequently inhibits formation of a complex with TTR; cited from earlier work
structure (smiles),measurement,setting,value
"O=C(O)CCn1ccc(-c2cc(C(F)(F)F)cc(C(F)(F)F)c2)n1 [Example 3, 3-(3-(3,5-bis(trifluoromethyl)phenyl)-1H-pyrazol-1-yl)propanoic acid]",RBP4 (initial value/control value %) 8 hr later,RBP4 [1]; 10 mg/kg single oral dose,20.70 ± 1.55%
same,RBP4 (initial value/control value %) 24 hr later,RBP4 [1]; 10 mg/kg single oral dose,49.64 ± 10.48%
same,inhibition at 10 µM,RBP4 [2],100%
same,A2E (% of control value),[3]; 10 mg/kg oral once per day,73.90 ± 15.58 % of control value
"O=C(O)COc1cnc(-c2cc(C(F)(F)F)cc(C(F)(F)F)c2)nc1 [Example 1, ((2-(3,5-bis(trifluoromethyl)phenyl)pyrimidin-5-yl)oxy)acetic acid]",RBP4 (initial value/control value %) 8 hr later,RBP4 [1]; 10 mg/kg single oral dose,37.25 ± 11.45%
same,RBP4 (initial value/control value %) 24 hr later,RBP4 [1]; 10 mg/kg single oral dose,61.81 ± 14.79%
same,inhibition at 10 µM,RBP4 [2],98%
"O=C(O)COc1nc(-c2cc(C(F)(F)F)cc(C(F)(F)F)c2)co1 [Example 4, ((4-(3,5-bis(trifluoromethyl)phenyl)-1,3-oxazol-2-yl)oxy)acetic acid]",RBP4 (initial value/control value %) 8 hr later,RBP4 [1]; 3 mg/kg single oral dose,19.86 ± 11.85%
same,RBP4 (initial value/control value %) 24 hr later,RBP4 [1]; 3 mg/kg single oral dose,54.29 ± 19.15%
same,inhibition at 10 µM,RBP4 [2],100%
same,A2E (% of control value),[3]; 1 mg/kg oral once per day,79.47 ± 14.53 % of control value
"COC(=O)COc1ccc(-c2cc(C(F)(F)F)cc(C(F)(F)F)c2)nc1 [Example 7, methyl 2-((6-(3,5-bis(trifluoromethyl)phenyl)pyridin-3-yl)oxy)acetate]",RBP4 (initial value/control value %) 8 hr later,RBP4 [1]; 10 mg/kg single oral dose,43.66 ± 4.92%
same,RBP4 (initial value/control value %) 24 hr later,RBP4 [1]; 10 mg/kg single oral dose,71.75 ± 8.77%
"O=C(O)COc1ccn(-c2cc(C(F)(F)F)cc(C(F)(F)F)c2)n1 [Example 5, ((1-(3,5-bis(trifluoromethyl)phenyl)-1H-pyrazol-3-yl)oxy)acetic acid]",RBP4 (initial value/control value %) 8 hr later,RBP4 [1]; 3 mg/kg single oral dose,32.14 ± 6.82%
same,RBP4 (initial value/control value %) 24 hr later,RBP4 [1]; 3 mg/kg single oral dose,36.20 ± 1.87%
same,inhibition at 10 µM,RBP4 [2],100%
same,A2E (% of control value),[3]; 3 mg/kg oral once per day,59.10 ± 10.33 % of control value
"O=C(O)COc1ccc(-c2cc(C(F)(F)F)cc(C(F)(F)F)c2)nc1 [Example 2, ((6-(3,5-bis(trifluoromethyl)phenyl)pyridin-3-yl)oxy)acetic acid]",RBP4 (initial value/control value %) 8 hr later,RBP4 [1]; 10 mg/kg single oral dose,23.93 ± 5.84%
same,RBP4 (initial value/control value %) 24 hr later,RBP4 [1]; 10 mg/kg single oral dose,64.87 ± 16.79%
same,inhibition at 10 µM,RBP4 [2],99%
same,A2E (% of control value),[3]; 10 mg/kg oral once per day,77.63 ± 9.06 % of control value
"CC1=C(/C=C/C(C)=C/C=C/C(C)=C/C(=O)Nc2ccc(O)cc2)C(C)(C)CCC1 [fenretinide, 4-hydroxy(phenyl)retinamide]",blood RBP4,RBP4 [4],induces lowering of blood RBP4
same,binding of RBP4 and retinol,RBP4 [5],inhibits binding of RBP4 and retinol
"CCOC(=O)COc1cnc(-c2cc(C(F)(F)F)cc(C(F)(F)F)c2)nc1 [Example 6, ethyl 2-((2-(3,5-bis(trifluoromethyl)phenyl)pyrimidin-5-yl)oxy)acetate]",RBP4 (initial value/control value %) 8 hr later,RBP4 [1]; 10 mg/kg single oral dose,58.17 ± 8.61%
same,RBP4 (initial value/control value %) 24 hr later,RBP4 [1]; 10 mg/kg single oral dose,79.70 ± 5.22%
